Some test systems named below: MALME-3M melanoma; KM12 colon; HCT-15 colon; T-47D breast; HL-60(TB) leukemia; COLO 205 colon; OVCAR-8 ovarian; OVCAR-3 ovarian; LXFL 529 NSCLC; M19-MEL melanoma.
Common to all, as to test: inhibition of tumour cell growth, NCI panel, 48 h

Molecules are shown by their SMILES. Where “and” joins values, the source holds several entries; their conditions need not be identical. Equal entries are not always repeated.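 Grown in 96-well plates, cells were treated for 48 hours with each compound at five concentrations. Insufficient inhibition: endpoint recorded as highest concentration tested. GI50 is the concentration that inhibits growth by half. TGI is the concentration that stops growth completely.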

For `CCn1c(-c2nonc2N)nc2ccccc21`, the GI50 in the test with MALME-3M melanoma, with KM12 colon, with HCT-15 colon, in the test with T-47D breast, in the test on HL-60(TB) leukemia and with COLO 205 colon was > 25 µM throughout. The GI50 with OVCAR-8 ovarian and with OVCAR-3 ovarian was > 25 µM in each case. For the same compound, the TGI with MALME-3M melanoma, in the test with KM12 colon, with HCT-15 colon, in the test with T-47D breast, in the test on HL-60(TB) leukemia and with COLO 205 colon was > 25 µM each time. Further, the TGI with OVCAR-8 ovarian and with OVCAR-3 ovarian was > 25 µM throughout.
`NNc1c(C(N)=O)c2c(N)ncnc2n1C1OC(CO)C(O)C1O` (stereo not drawn): the GI50 was 0.0205 µM and 0.0363 µM with MALME-3M melanoma; 0.0453 µM and 0.0475 µM in the test with KM12 colon; 0.0292 µM in the test with HCT-15 colon; 0.0665 µM and < 0.0118 µM with HL-60(TB) leukemia; < 0.01 µM with COLO 205 colon; 0.0178 µM and 0.0343 µM with OVCAR-8 ovarian. For the same compound, the GI50 with OVCAR-3 ovarian was 0.0176 µM and 0.0219 µM. Further, the TGI is 0.084 µM and 0.171 µM in the test with MALME-3M melanoma; 12.4 µM with KM12 colon; 1.5 µM and 3.04 µM with HCT-15 colon; 0.104 µM and 0.14 µM in the test with T-47D breast; 0.785 µM and 0.125 µM in the test on HL-60(TB) leukemia; 0.0552 µM and 0.0342 µM in the test on COLO 205 colon. The TGI in the test on OVCAR-8 ovarian is 11.5 µM and 3.51 µM; in the test with OVCAR-3 ovarian, 0.4 µM and 0.335 µM.
As to `CC(C)(C)N/N=C(/Cc1nc2c3c(ccc2[nH]c1=O)C(=O)c1ccccc1C3=O)C(=O)NC1=C(Cl)C(=O)c2ccccc2C1=O`, the TGI was 37.8 µM with MALME-3M melanoma; 8.83 µM in the test with KM12 colon; 20.3 µM in the test on HCT-15 colon; > 100 µM in the test with T-47D breast; > 100 µM in the test with HL-60(TB) leukemia; 89.5 µM in the test on COLO 205 colon. The figures for the TGI in the test on OVCAR-8 ovarian and with OVCAR-3 ovarian were 98.6 µM and > 100 µM, respectively.
As for `CC(C)=C[C@@H]1C[C@H](C)[C@H]2CC[C@H](C)c3c(O)c(OC4OC(C)C(O)C(O)C4O)c(C)c1c32` (stereo partly drawn), the GI50 in the test on MALME-3M melanoma is 12.9 µM; in the test on KM12 colon it was 2.63 µM; in the test on HCT-15 colon, 14.5 µM; in the test with T-47D breast, 12.5 µM; in the test on HL-60(TB) leukemia, 10.4 µM; with COLO 205 colon it was 14.4 µM. Also, the GI50 in the test on OVCAR-8 ovarian was 14.6 µM; in the test on OVCAR-3 ovarian, 1.93 µM. Further, the TGI in the test on MALME-3M melanoma was found to be 29.8 µM; in the test with KM12 colon, 8.16 µM; in the test on HCT-15 colon it was 27.6 µM; in the test on T-47D breast, 26.5 µM; with HL-60(TB) leukemia, 25.7 µM; in the test on COLO 205 colon, 27.9 µM. Also, the TGI in the test on OVCAR-8 ovarian came to 28 µM; in the test with OVCAR-3 ovarian it was 8.43 µM.
As for `CCCCCCCCCCCC/C=C\CC[C@@H](O)[C@H](O)CC[C@H](O)[C@@H]1CC[C@@H](CCCCCCCC2=C[C@H](C)OC2=O)O1`, the TGI is 31.2 µM with MALME-3M melanoma; 46 µM with KM12 colon; 33.8 µM with HCT-15 colon; 21.5 µM with T-47D breast; 6.56 µM in the test on HL-60(TB) leukemia; 8.36 µM and 22.9 µM with COLO 205 colon. Besides, the TGI in the test on OVCAR-8 ovarian is 38 µM; with OVCAR-3 ovarian, 6.64 µM and 18.7 µM. In addition, the GI50 in the test on KM12 colon is 12.9 µM; in the test with HCT-15 colon it was 8.86 µM; in the test with T-47D breast, 2.85 µM; with COLO 205 colon, 7.21 µM; with OVCAR-8 ovarian, 8.16 µM; with OVCAR-3 ovarian, 0.434 µM.
On to `CNC(=O)CCN1CCN(CC/C=C2\c3ccccc3Sc3ccc(Cl)cc32)CC1`, for which the GI50 in the test on MALME-3M melanoma is 2.59 µM; in the test on KM12 colon, 7.53 µM; in the test with HCT-15 colon it was 6.57 µM; in the test with T-47D breast, 9.21 µM; in the test with HL-60(TB) leukemia, 4.33 µM; in the test on COLO 205 colon it was 2.48 µM. Also, the values for the GI50 in the test on OVCAR-8 ovarian and in the test on OVCAR-3 ovarian were 14.4 µM and 11.8 µM, respectively. Further, the TGI was 6.16 µM in the test on MALME-3M melanoma; 23.5 µM in the test with KM12 colon; 20.6 µM with HCT-15 colon; 26.5 µM in the test with T-47D breast; > 41.1 µM with HL-60(TB) leukemia; 6 µM in the test with COLO 205 colon. For the same compound, the figures for the TGI in the test with OVCAR-8 ovarian and with OVCAR-3 ovarian were 32.2 µM and 27 µM, respectively.
Take `CC[C@H](C)[C@H](NC(=O)C12C3C4C1C1C2C3C41NC)C(=O)N(C)[C@H](C[C@@H](OC(C)=O)c1nc(C(=O)N[C@@H](Cc2ccccc2)C[C@H](C)C(=O)OC)cs1)C(C)C` (stereo partly drawn): the TGI was > 14.3 µM in the test on MALME-3M melanoma; > 14.3 µM with KM12 colon; > 14.3 µM in the test with HCT-15 colon; > 14.3 µM with T-47D breast; 0.346 µM in the test with HL-60(TB) leukemia; 2.51 µM with COLO 205 colon. For the same compound, the TGI is > 14.3 µM in the test with OVCAR-8 ovarian and 1.02 µM in the test on OVCAR-3 ovarian. Also, the GI50 in the test with KM12 colon was 0.517 µM; in the test on HCT-15 colon, 1.27 µM; with T-47D breast, > 14.3 µM; with HL-60(TB) leukemia it was 0.0568 µM; with COLO 205 colon, 0.402 µM; with OVCAR-8 ovarian, 0.717 µM. In addition, the GI50 with OVCAR-3 ovarian was 0.0872 µM.
On to `Cc1cc(NCCCCCCCNc2cc(C)nc3cc(N)ccc23)c2ccc(N)cc2n1`, for which the TGI in the test on LXFL 529 NSCLC is > 100 µM; in the test on MALME-3M melanoma it was > 100 µM; in the test with KM12 colon, 45.1 µM; with HCT-15 colon, > 100 µM; with M19-MEL melanoma, > 100 µM; in the test on HL-60(TB) leukemia, 23.9 µM. Also, the figures for the TGI in the test on COLO 205 colon, with OVCAR-8 ovarian and in the test on OVCAR-3 ovarian were 29.3 µM, > 100 µM and > 100 µM, respectively.
On to `C=C1OC2OC(C)C(NC(=O)OCC(Cl)(Cl)Cl)C(OC(C)=O)C2O1` (stereo not drawn), for which the TGI with MALME-3M melanoma, with KM12 colon, with HCT-15 colon, in the test on T-47D breast, with HL-60(TB) leukemia and with COLO 205 colon was > 100 µM in each case. The TGI with OVCAR-8 ovarian and in the test on OVCAR-3 ovarian was > 100 µM throughout.
With `COc1cc(-c2nc(-c3ccccc3)c(-c3ccccc3)[nH]2)cc(OC)c1O`, the GI50 is 18.8 µM in the test on MALME-3M melanoma; 15.1 µM in the test with KM12 colon; 13.3 µM with HCT-15 colon; 13.5 µM in the test on T-47D breast; 31.5 µM in the test on HL-60(TB) leukemia; 19.6 µM with COLO 205 colon. For the same compound, the GI50 in the test on OVCAR-8 ovarian is 26.5 µM; in the test with OVCAR-3 ovarian, 18.3 µM. The TGI in the test on MALME-3M melanoma is 40.3 µM; in the test on KM12 colon, 30.4 µM; in the test on HCT-15 colon it was 41.4 µM; in the test with T-47D breast, 38.7 µM; with HL-60(TB) leukemia it was > 100 µM; in the test on COLO 205 colon, 36.4 µM. Also, the TGI with OVCAR-8 ovarian amounted to 83.2 µM; with OVCAR-3 ovarian it was 34.2 µM.

The values are drawn from PubChem BioAssay (NCI).
